Results on seven molecules are retold here after patent publication US9663429B2, “Vitamin D analogues of pharmaceutical interest” (UNIVERSIDADE DE SANTIAGO DE COMPOSTELA, priority 2013, dated 2017).

Series [1] in a line: Dose-response assay of serum calcium in mice. The class given is in vivo. How it is done:
FIG. 9. […] 1,25D (dose of 0.3 μg/kg) and analogues (doses of 0.1, 0.5, 1 and 5 μg/kg) were injected intraperitoneally every 2 days for 21 days. After treatment the calcium levels in the serum were evaluated and the values were represented as mean±SD in […].
(§1) Calcium mobilization of analogues was determined in 28 male CD-1 mice (6-8 weeks old). 6 Groups of 4 mice each were established, which mice were intraperitoneally (ip) injected with 0.3 μg/kg weight of each analogue or 1,25D dissolved in sesame oil every two days for 3 weeks. A seventh group of 4 mice treated with the carrier (sesame oil) served as controls. Calcium levels in blood were determined by QuantiChomCalciumAssay Kit (BioAssaySystems, Hayward, Calif., USA). In addition, a dose-response assay was performed to assess the effect of administration of the analogues PG-403 and PG136p and hormone (1,25D) at different doses on calcium levels. This assay was performed in male mice (5 mice per group), and the doses used were: 0.1, 0.5, 1, and 5 μg/kg weight of each analogue or 1,25D, i.p. administered every two days for 21 days. In addition, a control group (mice treated with sesame oil) was used.

Series [2] can be described thus: Calcaemic effects in mice at 0.3 μg/kg. Format: in vivo. Particulars: for Calcaemic activity: blood calcium in percentage over that induced by 1,25D: ip every two days for 21 days, 0.3 μg/kg (table title prints 0.3 mg/kg); for Hypercalcemia (serum calcium versus control): 0.3 μg/Kg ip every 2 days for 21 days. As for the experimental part: FIG. 8. […] 1,25D and the various analogues were injected intraperitoneally every 2 days for 21 days at a dose of 0.3 μg/Kg. After treatment the calcium levels in the serum were evaluated and the values were represented as mean±SD in […].
as §1

Series [3] in a line: Body weight of mice in the dose-response assay. The class given is in vivo. How it is done:
FIG. 10. […] 1,25D (dose of 0.3 μg/kg) and analogues (doses of 0.1, 0.5, 1 and 5 μg/kg) were injected intraperitoneally every 2 days for 21 days. Animals were weighed every two days during treatment. The values were represented as mean±SD in […].
In this experiment, also the weight of the animals was quantified to determine whether there was any modification throughout the treatment.

The target in a further series is T1, vitamin D receptor (VDR) (Homo sapiens, UniProt P11473).
T1 construct: purchased Invitrogen
T1 sequence (P11473 1-427): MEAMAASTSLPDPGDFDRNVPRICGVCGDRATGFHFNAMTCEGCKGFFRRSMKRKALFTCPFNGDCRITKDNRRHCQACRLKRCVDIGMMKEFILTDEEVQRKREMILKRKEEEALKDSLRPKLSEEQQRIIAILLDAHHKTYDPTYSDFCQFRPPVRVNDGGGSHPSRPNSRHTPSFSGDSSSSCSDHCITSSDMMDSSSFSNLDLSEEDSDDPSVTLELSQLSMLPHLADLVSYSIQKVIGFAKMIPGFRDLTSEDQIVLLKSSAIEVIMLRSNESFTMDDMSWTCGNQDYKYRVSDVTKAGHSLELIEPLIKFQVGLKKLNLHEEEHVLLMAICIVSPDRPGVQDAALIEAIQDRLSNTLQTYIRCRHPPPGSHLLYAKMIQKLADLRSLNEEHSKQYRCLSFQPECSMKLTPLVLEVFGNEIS
Kind of series: Competitive binding to vitamin D receptor (Polarscreen VDR competitor assay, fluorescence polarisation). The following applies: for Binding to VDR % relative to 1,25D (100%): activity relative to natural hormone 1,25D normalised at 100%; for IC50: competitive displacement, 10^−11 to 10^−5 M. As for the experimental part:
FIG. 1. […] The values represent the mean of at least two experiments.
Polarised fluorescence was determined in 384-well black plates for 200 ms/well using a Mithras LB 940 device (Berthold Technologies).
(In general: Fluorescence polarisation rises when a labelled molecule tumbles more slowly, as on binding a larger partner.)

Another series relates to SKOV-3 cells. Briefly: MTT proliferation assay, SKOV-3. The following applies: 10^−7 M, 48 hours, 100% control cells.
For series [4], the system named is 24-hydroxylase promoter, CYP24A1 (pCYP24A1-Luc). Briefly: Transactivation reporter assay (pCYP24A1-Luc) in MCF-7 cells. The following applies: for EC50: Homo sapiens, MCF7, 24 h, read-out: Transcriptional activity EC50; for Transcriptional activity % relative to 1,25D (100%): MCF-7 cells, pCYP24A1-Luc. A general note: A reporter such as luciferase makes a cellular process visible.

In another series the test system is PC-3 cells. Briefly: MTT proliferation assay, PC-3. Particulars: 10^−7 M, 48 hours, 100% control cells. A general note: Tetrazolium assays rely on reduction of a dye to a coloured formazan, in cell work by metabolically active cells.
The subject of series [5] is MCF-7 cells. Briefly: 3D cell culture on matrigel (spheroid size), MCF-7. Format: cell-based, human. Particulars: for Cell proliferation percentage MCF-7 3D: 10^−7 M, matrigel spheroids, 100% control cells. How it is done: FIG. 7. MCF-7 cells were shown for 10 days on a matrigel bed until they formed a 3D cellular structure. […] After treatment, the spheroids were stained with DAPI (4′,6-diamino-2-phenylindole) for 1 hour and photographed under an inverted microscope with ultraviolet light. The size of these spheroids was measured and the values were represented as mean±SD in relative units. […] Those cells treated with the carrier were considered as the control value.
For 3D cell culture, a cushion of 200 μl of Matrigel (BD Biosciences) was used in each of the wells of multi-well plates of 24 wells. They were incubated at 37° C. for 20 minutes for their solidification and subsequently the cell suspension (5×10^3 cells per 100 μl volume of medium) was loaded onto the matrigel solidified and another incubation at 37° C. was performed for 30 minutes so that the cells penetrated properly on the matrigel base. 500 μl of DMEM medium were added to each well, and the cells were maintained in culture for 10 days. At the end of this time, the cells were started to be treated with each of the 5 analogues used and 1,25D.

In series [6] the test system is MCF-7 cells. Briefly: MTT proliferation assay, MCF-7. The following applies: 10^−7 M, 48 hours, 100% control cells.
The subject of the next series is HaCaT cells. Briefly: MTT proliferation assay, HaCaT. The following applies: 10^−7 M, 48 hours, 100% control cells.

The structures appear in SMILES notation. Entries after “also recorded” stand apart in the source; their conditions may differ.

In general, IC50 refers to the concentration that gives 50% inhibition. The term EC50 denotes the midpoint of the concentration-response curve.

On to `C=C1/C(=C\C=C2/CCC[C@]3(C)[C@@H]([C@H](C)CCCC(C)(C)O)CC[C@@H]23)C[C@@H](O)C[C@@H]1O` [1,25D, 1,25-dihydroxyvitamin D3, reference compound], for which the “Serum calcium versus controls, 1,25D” value in series [1] (0.5 μg/kg weight ip every two days for 21 days) is “induces a significant increase in serum calcium”. Further, the Blood calcium in [2] (0.3 μg/kg ip every two days for 3 weeks, carrier 11.9±0.7) was 14.7 ± 0.58 mg/dL. Further, the “Calcaemic activity: blood calcium in percentage over that induced by 1,25D” value in series [2] was 100%. The “Body weight, 1,25D” value in [3] (mice, 0.5 μg/kg weight ip every two days for 21 days) is listed as “produced a significant decrease in the weight of the animals”.

As for `C=C1/C(=C\C=C(/CCCC)c2cccc(CCCCCC(C)(C)O)c2)C[C@@H](O)C[C@@H]1O` [PG-128, (1R,3S,Z)-5-((E)-3-(3-(6-hydroxy-6-methylheptyl)phenyl)hept-2-enyliden)-4-methylenecyclohexane-1,3-diol], on vitamin D receptor (VDR), the “Binding to VDR % relative to 1,25D (100%)” value is given as 12% and the half-inhibitory concentration (IC50) came out at 13.6 nM. The “Cell proliferation percentage SKOV-3 2D” value in the series with SKOV-3 cells is 81%. For the same molecule, in [4], the EC50 came to 10 nM and the “Transcriptional activity % relative to 1,25D (100%)” value is listed as 20%. In addition, in series [2], the “Hypercalcemia (serum calcium versus control)” value is given as “does not produce hypercalcemia” and the “Calcaemic activity: blood calcium in percentage over that induced by 1,25D” value is 34%. The “Cell proliferation percentage PC-3 2D” value with PC-3 cells is recorded as 84%. Moreover, the “Cell proliferation percentage MCF-7 3D” value with MCF-7 cells [5] is 84%. In the series with MCF-7 cells [6], the “Cell proliferation percentage MCF-7 2D” value was determined as 74%. Further, the “Cell proliferation percentage HaCaT 2D” value in the series with HaCaT cells worked out at 71%.

For the molecule `C=C1/C(=C\C=C(/CCC)c2cccc(CCCCCC(C)(C)O)c2)C[C@@H](O)C[C@@H]1O` [PG-152, (1R,3S,Z)-5-((E)-3-(3-(6-hydroxy-6-methylheptyl)phenyl)hex-2-enyliden)-4-methylenecyclohexane-1,3-diol], on vitamin D receptor (VDR), the “Binding to VDR % relative to 1,25D (100%)” value amounted to 10% and the IC50 turned out to be 17.6 nM. For the same molecule, in the series on SKOV-3 cells, the “Cell proliferation percentage SKOV-3 2D” value turned out to be 82%. Moreover, in [4], the EC50 was determined as 9.27 nM and the “Transcriptional activity % relative to 1,25D (100%)” value came out at 21%. Also, in [2], the “Hypercalcemia (serum calcium versus control)” value was “does not produce hypercalcemia” and the “Calcaemic activity: blood calcium in percentage over that induced by 1,25D” value is 41%. Also, the “Cell proliferation percentage PC-3 2D” value with PC-3 cells came out at 83%. Further, the “Cell proliferation percentage MCF-7 3D” value with MCF-7 cells [5] worked out at 74%. Besides, the “Cell proliferation percentage MCF-7 2D” value in the series with MCF-7 cells [6] was determined as 69%. Besides, in the series on HaCaT cells, the “Cell proliferation percentage HaCaT 2D” value is recorded as 71%.

In the case of `C=C1/C(=C\C=C(/CCCCCC)c2cccc(CCCCCC(C)(C)O)c2)C[C@@H](O)C[C@@H]1O` [PG-156, (1R,3S,Z)-5-((E)-3-(3-(6-hydroxy-6-methylheptyl)phenyl)non-2-enyliden)-4-methylenecyclohexane-1,3-diol], at vitamin D receptor (VDR), the “Binding to VDR % relative to 1,25D (100%)” value worked out at 9% and the IC50 was 18.4 nM. Further, the “Cell proliferation percentage SKOV-3 2D” value with SKOV-3 cells was 76%. Moreover, in [4], the EC50 is 11.4 nM and the “Transcriptional activity % relative to 1,25D (100%)” value is recorded as 17%. In series [2], the “Hypercalcemia (serum calcium versus control)” value was “does not produce hypercalcemia” and the “Calcaemic activity: blood calcium in percentage over that induced by 1,25D” value is listed as 0%. For the same molecule, the “Cell proliferation percentage PC-3 2D” value in the series on PC-3 cells was found to be 80%. Further, the “Cell proliferation percentage MCF-7 3D” value in the series on MCF-7 cells [5] turned out to be 79%. In addition, in the series on MCF-7 cells [6], the “Cell proliferation percentage MCF-7 2D” value was 78%. Besides, the “Cell proliferation percentage HaCaT 2D” value in the series on HaCaT cells is 74%.

On to `C=C1/C(=C\C=C(/CCCCCC(C)(C)O)c2cccc(CCCCCC(C)(C)O)c2)C[C@@H](O)C[C@@H]1O` [PG-385, (1R,3S,Z)-5-((E)-9-hydroxy-3-(3-(6-hydroxy-6-methylheptyl)phenyl)-9-methyldec-2-enyliden)-4-methylenecyclohexane-1,3-diol], for which, in series [4], the EC50 amounted to 5.6 nM and the “Transcriptional activity % relative to 1,25D (100%)” value stood at 35%. Also, in series [2], the “Hypercalcemia (serum calcium versus control)” value is listed as “does not produce hypercalcemia” and the “Calcaemic activity: blood calcium in percentage over that induced by 1,25D” value is on record as 9%. The “Cell proliferation percentage MCF-7 2D” value with MCF-7 cells [6] is listed as 69%.

For `C=C1/C(=C\C=C(/CCCCCCC)c2cccc(CCCCCC(C)(C)O)c2)C[C@@H](O)C[C@@H]1O` [PG-403, (1R,3S,Z)-5-((E)-3-(3-(6-hydroxy-6-methylheptyl)phenyl)dec-2-enyliden)-4-methylenecyclohexane-1,3-diol], on vitamin D receptor (VDR), the “Binding to VDR % relative to 1,25D (100%)” value turned out to be 7% and the IC50 is 23.5 nM. Also, in the series on SKOV-3 cells, the “Cell proliferation percentage SKOV-3 2D” value is 83%. In addition, in series [4], the EC50 turned out to be 34.6 nM and the “Transcriptional activity % relative to 1,25D (100%)” value was 6%. For the same molecule, the “Serum calcium versus control animals (placebo)” value in series [1] (5 μg/kg weight ip every two days for 21 days) was “did not significantly raise serum calcium”. In addition, in series [1] (doses 0.1, 0.5, 1 and 5 μg/kg ip every 2 days for 21 days), the “Serum calcium versus controls, analogues” value is “does not produce hypercalcemia; also recorded: None of the two analogues tested (PG136p and PG-403) induces increased serum calcium”. Moreover, in [2], the “Hypercalcemia (serum calcium versus control)” value is given as “does not produce hypercalcemia” and the “Calcaemic activity: blood calcium in percentage over that induced by 1,25D” value is on record as 0%. Moreover, the “Cell proliferation percentage PC-3 2D” value in the series with PC-3 cells is listed as 79%. Also, the “Three-dimensional growth of MCF-7 spheroids (in words)” value with MCF-7 cells [5] (10^−7 M for 7 days) is reported as “inhibit the three-dimensional growth, similarly to 1,25D”. Besides, in the series on MCF-7 cells [5], the “Cell proliferation percentage MCF-7 3D” value turned out to be 55%. Also, in [3] (mice, 0.1, 0.5, 1 and 5 μg/kg ip every 2 days for 21 days), the “Body weight versus control animals, analogues” value is “does not change the body weight; also recorded: did not significantly affect the body weight”. For the same molecule, in the series with MCF-7 cells [6], the “Cell proliferation percentage MCF-7 2D” value stood at 69%. For the same molecule, the “Cell proliferation percentage HaCaT 2D” value with HaCaT cells stood at 71%.

As for `C=C1/C(=C\C=C\c2cc(CCCCCC(C)(C)O)cc(CCCCCC(C)(C)O)c2)C[C@@H](O)C[C@@H]1O` [PG-433, (1R,3S,Z)-5-((E)-3-(3.5-(6-hydroxy-6-methylheptyl)phenyl)allyliden)-4-methylenecyclohexane-1,3-diol], in series [4], the EC50 is 2.95 nM and the “Transcriptional activity % relative to 1,25D (100%)” value was 67%. Besides, in series [2], the “Hypercalcemia (serum calcium versus control)” value is recorded as “does not produce hypercalcemia” and the “Calcaemic activity: blood calcium in percentage over that induced by 1,25D” value is 8%. Further, the “Cell proliferation percentage MCF-7 2D” value with MCF-7 cells [6] stood at 69%.
